Experimental findings from ChEMBL document CHEMBL1201862, “PubChem BioAssay data set” (2004) are described below.

Some test systems named below: 786-0; CAKI-1; EKVX; HCC 2998; HCT-116; HOP-62; HT-29; Hs-578T; IGROV-1; LOX IMVI; MCF7; MDA-N; NCI-H226; NCI-H522; OVCAR-4; OVCAR-5; OVCAR-8; RPMI-8226; M14; SK-OV-3.
Common to all, as to experiment: NCI anticancer screen, dose series, 48 h

Molecules are shown by their SMILES.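 Cells were grown in 96-well plates and exposed to each compound for 48 hours at five concentrations; endpoints were interpolated linearly between bracketing concentrations, or set to the highest concentration if not reached. The concentration for 50% growth inhibition is given as GI50.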 Activity calls are given as the source filed them. No stated cut-off is given here; in the data, active = GI50 up to about 1.1 µM and inactive = higher.

Take `CC(C)(C)OC(=O)NC(Cc1ccc(O)cn1)C(=O)O` (stereo not given): the GI50 with 786-0, in the experiment with CAKI-1, in the experiment with EKVX, with HCC 2998, in the experiment with HCT-116 and in the experiment on HOP-62 was > 100 µM (inactive) in each case. The GI50 with HT-29, in the experiment with Hs-578T, in the experiment on IGROV-1, in the experiment with LOX IMVI, with MCF7 and with MDA-N was > 100 µM (inactive) throughout. Further, the GI50 in the experiment with NCI-H226, with NCI-H522, in the experiment on OVCAR-4, with OVCAR-5, with OVCAR-8 and in the experiment on RPMI-8226 was > 100 µM (inactive) each time.

Consider `O=c1oc2ccc(Cl)cc2c2ccccc12`, for which the GI50 in the experiment on 786-0 is 40.1 µM (inactive); with CAKI-1, 43 µM (inactive); in the experiment with EKVX, 10.8 µM (inactive); in the experiment with HCC 2998, > 100 µM (inactive); in the experiment with HCT-116 it was 76.2 µM (inactive); in the experiment on HOP-62 it was 18.8 µM (inactive). The GI50 in the experiment with HT-29 is > 100 µM (inactive); in the experiment with Hs-578T it was 18.3 µM (inactive); in the experiment on IGROV-1, 71.8 µM (inactive); in the experiment with LOX IMVI, > 100 µM (inactive); in the experiment with M14 it was > 100 µM (inactive); in the experiment with MCF7, 53.2 µM (inactive). Further, the GI50 is > 100 µM (inactive) with MDA-N; 27.5 µM (inactive) with NCI-H226; 48.5 µM (inactive) with NCI-H522; > 100 µM (inactive) in the experiment with OVCAR-4; 78.3 µM (inactive) in the experiment on OVCAR-5; 65 µM (inactive) with OVCAR-8. Moreover, the GI50 with RPMI-8226 was > 100 µM (inactive).

In the case of `Clc1ncnc2c1nc(C#Cc1ccccc1)n2Cc1ccccc1`, the GI50 in the experiment on 786-0 was 13.7 µM (inactive); with CAKI-1 it was 18.2 µM (inactive); in the experiment with EKVX it was 13.3 µM (inactive); in the experiment with HCC 2998, 11.4 µM (inactive); in the experiment on HCT-116, 34 µM (inactive); with HOP-62, 24.7 µM (inactive). Moreover, the GI50 in the experiment on HT-29 is 24.3 µM (inactive); in the experiment with Hs-578T, 53 µM (inactive); in the experiment on LOX IMVI, 11.2 µM (inactive); with M14, 19.1 µM (inactive); with MCF7, 23 µM (inactive); in the experiment with MDA-N it was 5.61 µM (inactive). In addition, the GI50 was 45.3 µM (inactive) in the experiment with NCI-H226; 16.4 µM (inactive) with NCI-H522; 16.7 µM (inactive) in the experiment on OVCAR-4; > 100 µM (inactive) in the experiment with OVCAR-5; 12.7 µM (inactive) in the experiment with OVCAR-8; > 100 µM (inactive) in the experiment with SK-OV-3.

Turning to `OC(C/C=N/Nc1ccccc1)(C(F)(F)Cl)C(F)(F)Cl`, the GI50 with 786-0 is > 10 µM (inactive); with CAKI-1, 7.43 µM (inactive); in the experiment on EKVX, > 10 µM (inactive); in the experiment with HCC 2998, 4.12 µM (inactive); in the experiment with HCT-116 it was 5.15 µM (inactive); with HOP-62, > 10 µM (inactive). Moreover, the GI50 in the experiment with HT-29 is > 10 µM (inactive); with Hs-578T, 4.66 µM (inactive); with IGROV-1, 6.76 µM (inactive); in the experiment with LOX IMVI, > 10 µM (inactive); with M14, > 10 µM (inactive); in the experiment on MCF7, > 10 µM (inactive). Further, the GI50 in the experiment on MDA-N is > 10 µM (inactive); with NCI-H226 it was 7.38 µM (inactive); in the experiment on NCI-H522, 4.05 µM (inactive); in the experiment with OVCAR-4 it was > 10 µM (inactive); with OVCAR-8, > 10 µM (inactive); in the experiment with SK-OV-3 it was > 10 µM (inactive).

With `N[C@H](CCC(=O)NCP(=O)(O)O)C(=O)O`, the GI50 with 786-0, in the experiment with EKVX, in the experiment with HCC 2998, in the experiment on HCT-116, with HOP-62 and with HT-29 was > 100 µM (inactive) throughout. In addition, the GI50 in the experiment with Hs-578T, in the experiment on IGROV-1, in the experiment with MCF7, in the experiment on MDA-N, in the experiment on NCI-H522 and in the experiment on OVCAR-5 was > 100 µM (inactive) throughout. The GI50 with OVCAR-8 and with RPMI-8226 was > 100 µM (inactive) each time.

Turning to `CC(=O)c1cccc(NC2C(N)C(NC(=O)N(C)C)(C(C)O)C(C)(O)C2(O)COC(=O)c2c(C)cccc2O)c1` (stereo not given), the GI50 in the experiment with 786-0, in the experiment with CAKI-1, in the experiment on EKVX, in the experiment on HCC 2998, in the experiment on HCT-116 and in the experiment on HOP-62 was < 0.001 µM (active) in each case. In addition, the GI50 was < 0.001 µM (active) with HT-29; < 0.001 µM (active) in the experiment on Hs-578T; < 0.001 µM (active) in the experiment on IGROV-1; 0.0118 µM (active) in the experiment with M14; < 0.001 µM (active) in the experiment on MCF7; < 0.001 µM (active) in the experiment with MDA-N. The GI50 was < 0.001 µM (active) in the experiment with NCI-H226; 0.01 µM (active) in the experiment with NCI-H522; < 0.001 µM (active) with OVCAR-4; < 0.001 µM (active) in the experiment on OVCAR-5; < 0.001 µM (active) in the experiment with OVCAR-8; < 0.001 µM (active) in the experiment on RPMI-8226. Moreover, in the experiment with SK-OV-3, the GI50 was < 0.001 µM (active).

Turning to `O=C(/C=C/C(=O)N1CCCC1)N1CCCC1`, the GI50 in the experiment with 786-0, in the experiment on CAKI-1, with EKVX, in the experiment on HCC 2998, with HCT-116 and with HOP-62 was > 100 µM (inactive) in each case. Also, the GI50 in the experiment with HT-29, in the experiment on Hs-578T, in the experiment on IGROV-1, in the experiment on LOX IMVI, with M14 and in the experiment on MCF7 was > 100 µM (inactive) throughout. The GI50 in the experiment with MDA-N, in the experiment on NCI-H522, in the experiment on OVCAR-4, in the experiment on OVCAR-5, in the experiment on OVCAR-8 and in the experiment on RPMI-8226 was > 100 µM (inactive) in each case. For the same compound, in the experiment with SK-OV-3, the GI50 was > 100 µM (inactive).

As for `FC(F)(F)c1ccc2nc(Sc3ccc4ccccc4c3)cnc2c1`, the GI50 with 786-0 was 40.5 µM (inactive); in the experiment on CAKI-1, 50.2 µM (inactive); with EKVX, 94 µM (inactive); in the experiment with HCC 2998, 52 µM (inactive); with HCT-116, 46 µM (inactive); in the experiment on HOP-62 it was 74.8 µM (inactive). The GI50 was 87.3 µM (inactive) with HT-29; > 100 µM (inactive) in the experiment on Hs-578T; > 100 µM (inactive) in the experiment with IGROV-1; 44.1 µM (inactive) in the experiment on LOX IMVI; 87.9 µM (inactive) in the experiment with M14; 45 µM (inactive) in the experiment on MCF7. The GI50 in the experiment with MDA-N is 38.5 µM (inactive); with NCI-H226 it was 87.9 µM (inactive); in the experiment on NCI-H522, 37.5 µM (inactive); in the experiment with OVCAR-4, 51.5 µM (inactive); in the experiment on OVCAR-5, > 100 µM (inactive); in the experiment on OVCAR-8, > 100 µM (inactive). For the same compound, the GI50 in the experiment on SK-OV-3 was > 100 µM (inactive).

`COC(=O)[C@]1(C)CCC[C@@]2(C)C1CC[C@@]13C=C(C(C)C)[C@@H](CC1=O)CC23` (stereo not given in full): the GI50 in the experiment with 786-0 is 25.9 µM (inactive); in the experiment with CAKI-1, 34.2 µM (inactive); in the experiment on EKVX, 27.4 µM (inactive); in the experiment with HCC 2998 it was 38.3 µM (inactive); with HCT-116 it was 20.4 µM (inactive); with HOP-62 it was 30.6 µM (inactive). Besides, the GI50 with HT-29 is 18.2 µM (inactive); with Hs-578T it was 13.4 µM (inactive); with IGROV-1, 35.2 µM (inactive); with M14, 38.5 µM (inactive); in the experiment with MCF7, 26.1 µM (inactive); in the experiment on MDA-N it was 28.8 µM (inactive). Besides, the GI50 in the experiment with NCI-H226 was 21.1 µM (inactive); with NCI-H522, 18.6 µM (inactive); in the experiment with OVCAR-4, 35.2 µM (inactive); in the experiment on OVCAR-8 it was 29 µM (inactive); in the experiment on RPMI-8226, 18.5 µM (inactive); in the experiment with SK-OV-3, 46.3 µM (inactive).

With `Cc1ccc2c(c1)CC1(Cc3ccccc3C1=O)C2=O` (stereo not given), the GI50 with 786-0 is > 100 µM (inactive); in the experiment on EKVX, > 100 µM (inactive); in the experiment on HCC 2998, > 100 µM (inactive); in the experiment on HCT-116 it was > 100 µM (inactive); in the experiment with HOP-62 it was 44.4 µM (inactive); with HT-29, > 100 µM (inactive). For the same compound, the GI50 with Hs-578T, with IGROV-1, in the experiment with LOX IMVI, in the experiment on M14, in the experiment on MCF7 and with MDA-N was > 100 µM (inactive) each time. Also, the GI50 with NCI-H226 is > 100 µM (inactive); with NCI-H522 it was > 100 µM (inactive); in the experiment with OVCAR-4, > 100 µM (inactive); with OVCAR-5, 55.6 µM (inactive); in the experiment with OVCAR-8 it was > 100 µM (inactive); with RPMI-8226, > 100 µM (inactive). Besides, in the experiment on SK-OV-3, the GI50 is > 100 µM (inactive).

Consider `Cc1ccc(/N=N/C(=N/c2ccccc2)c2ccc(N(CCC#N)CCC#N)cc2)cc1`, for which the GI50 is 37.8 µM (inactive) in the experiment with 786-0; 55.5 µM (inactive) in the experiment with CAKI-1; 30.6 µM (inactive) in the experiment on EKVX; 19.4 µM (inactive) in the experiment with HCC 2998; 32.9 µM (inactive) in the experiment on HCT-116; 30.1 µM (inactive) in the experiment on HOP-62. Also, the GI50 with HT-29 was 30.9 µM (inactive); in the experiment on Hs-578T it was 37 µM (inactive); in the experiment with IGROV-1 it was 20.3 µM (inactive); in the experiment with M14 it was 33.4 µM (inactive); in the experiment with MCF7 it was 22.1 µM (inactive); in the experiment with MDA-N it was 31.6 µM (inactive). In addition, the GI50 with NCI-H226 was 27.7 µM (inactive); with NCI-H522, 17.4 µM (inactive); with OVCAR-4, 42.6 µM (inactive); in the experiment with OVCAR-5 it was 54.2 µM (inactive); with OVCAR-8, 26.1 µM (inactive); in the experiment with RPMI-8226 it was 39 µM (inactive). Further, the GI50 with SK-OV-3 was 30.8 µM (inactive).
